Our source for the IC50 values is article PMC12219075 (Scientific Reports, 2025).

For this assay, the target named is Proto-oncogene tyrosine-protein kinase Src (SRC) (Homo sapiens, UniProt P12931). Nature of the assay: mobility shift kinase assay. The class given is biochemical.

The structures appear in SMILES notation.

Chain of Proto-oncogene tyrosine-protein kinase Src (SRC) (P12931 2-536): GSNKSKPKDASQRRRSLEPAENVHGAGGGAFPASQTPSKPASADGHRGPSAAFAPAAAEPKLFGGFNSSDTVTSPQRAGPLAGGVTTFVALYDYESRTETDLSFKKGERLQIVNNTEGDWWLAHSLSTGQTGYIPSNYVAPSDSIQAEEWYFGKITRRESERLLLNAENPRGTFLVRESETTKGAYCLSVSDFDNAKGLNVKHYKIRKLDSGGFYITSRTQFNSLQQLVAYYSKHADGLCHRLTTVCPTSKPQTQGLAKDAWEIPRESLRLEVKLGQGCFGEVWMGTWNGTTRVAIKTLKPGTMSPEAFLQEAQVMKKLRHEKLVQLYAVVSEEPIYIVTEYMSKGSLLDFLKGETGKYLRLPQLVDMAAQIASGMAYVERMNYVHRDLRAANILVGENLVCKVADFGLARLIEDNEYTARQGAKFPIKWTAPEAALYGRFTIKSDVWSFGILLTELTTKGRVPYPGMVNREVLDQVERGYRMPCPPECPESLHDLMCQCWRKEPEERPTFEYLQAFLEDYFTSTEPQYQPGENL

As for `CC1(C)CC[C@]2(C(=O)O)CC[C@]3(C)C(=CC[C@@H]4[C@@]5(C)C[C@@H](O)[C@H](O)C(C)(C)[C@@H]5CC[C@]43C)[C@@H]2C1` [compound 102, crataegolic acid], the IC50 turned out to be 26.9 µM.

Turning to `CC1(C)CC[C@]2(C(=O)O)CC[C@]3(C)C(=CC[C@@H]4[C@@]5(C)CC[C@H](O)C(C)(C)[C@@H]5CC[C@]43C)[C@@H]2C1` [compound 116, oleanolic acid], the IC50 was 29.9 µM.

For the compound `C[C@@H]1CC[C@]2(C(=O)O)CC[C@]3(C)C(=CC[C@@H]4[C@@]5(C)C[C@@H](O)[C@@H](O)C(C)(C)[C@@H]5CC[C@]43C)[C@@H]2[C@]1(C)O` [compound 99, 2α,3α,19α-trihydroxyurs-12-en-28-oic acid], the IC50 was 22.5 µM.
